The sequences below were run against T1, human TLR7 (Homo sapiens, UniProt Q9NYK1) (assay: HEK-TLR7 NF-κB-luciferase reporter, R848 stimulation). Conditions: MOE-modified ASO at 100 nM; averaged NF-κB-Luciferase relative to R848 condition.
T1 construct: HA; host or cells: 293XL-hTLR7-HA (HEK293)
T1 sequence (Q9NYK1 27-1049): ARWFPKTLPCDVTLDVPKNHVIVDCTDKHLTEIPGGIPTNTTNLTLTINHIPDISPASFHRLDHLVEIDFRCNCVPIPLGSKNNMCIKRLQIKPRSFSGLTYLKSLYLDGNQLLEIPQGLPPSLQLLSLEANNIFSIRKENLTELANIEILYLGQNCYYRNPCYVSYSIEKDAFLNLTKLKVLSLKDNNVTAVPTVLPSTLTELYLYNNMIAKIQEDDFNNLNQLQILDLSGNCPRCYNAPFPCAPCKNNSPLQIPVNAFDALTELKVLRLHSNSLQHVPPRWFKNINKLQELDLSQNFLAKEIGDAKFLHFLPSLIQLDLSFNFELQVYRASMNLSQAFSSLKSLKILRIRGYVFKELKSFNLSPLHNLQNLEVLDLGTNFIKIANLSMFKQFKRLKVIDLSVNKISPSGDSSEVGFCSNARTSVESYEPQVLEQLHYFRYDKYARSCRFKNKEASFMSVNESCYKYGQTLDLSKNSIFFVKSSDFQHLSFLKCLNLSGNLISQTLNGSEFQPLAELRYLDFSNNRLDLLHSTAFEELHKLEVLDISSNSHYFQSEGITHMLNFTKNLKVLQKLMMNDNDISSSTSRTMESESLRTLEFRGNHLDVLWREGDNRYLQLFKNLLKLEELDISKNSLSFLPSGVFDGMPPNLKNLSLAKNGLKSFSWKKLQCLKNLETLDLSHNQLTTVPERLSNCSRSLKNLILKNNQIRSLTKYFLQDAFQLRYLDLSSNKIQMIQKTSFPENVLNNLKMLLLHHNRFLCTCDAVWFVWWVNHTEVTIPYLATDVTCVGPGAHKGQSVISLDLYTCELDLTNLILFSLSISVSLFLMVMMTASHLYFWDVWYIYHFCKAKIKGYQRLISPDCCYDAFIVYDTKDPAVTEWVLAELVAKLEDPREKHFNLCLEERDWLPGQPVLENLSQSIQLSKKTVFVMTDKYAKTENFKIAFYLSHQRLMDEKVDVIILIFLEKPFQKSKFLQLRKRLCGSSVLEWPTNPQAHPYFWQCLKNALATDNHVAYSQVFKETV
Type: cell-based

Sequence	TLR7 100 nM
AACACTTCGTGGGGTCCTTT (antisense; 2'-MOE modified, pattern not given here) [HPRT-664 MOE]	0.406
AATCCGCCCAAAGGGAACTG (antisense; 2'-MOE modified, pattern not given here) [HPRT-1027 MOE]	0.691
ACAACCCCTTTCACCATCCC (antisense; 2'-MOE modified, pattern not given here) [MB21D1-689 MOE]	0.593
ACAGTGTTGAGATACTCGGG (antisense; 2'-MOE modified, pattern not given here) [EGFR-3652 MOE]	0.420
ACCCACTTGGCAGACCATCA (antisense; 2'-MOE modified, pattern not given here) [CTNN2B-1575 MOE]	0.473
ACTGACTGTCTTGAGGGTTC (antisense; 2'-MOE modified, pattern not given here) [MB21D1-1483 MOE]	0.627
AGATCTGGCAGCCCATCAAC (antisense; 2'-MOE modified, pattern not given here) [CTNN2B-2516 MOE]	0.500
AGGTCTTGGCTTCGTGGAGC (antisense; 2'-MOE modified, pattern not given here) [MB21D1-522 MOE]	0.547
ATCCAACACTTCGTGGGGTC (antisense; 2'-MOE modified, pattern not given here) [HPRT-668 MOE]	0.758
ATGTCCCCTGTTGACTGGTC (antisense; 2'-MOE modified, pattern not given here) [HPRT-489 MOE]	0.426
ATGTCCCGCCACTGGATGCT (antisense; 2'-MOE modified, pattern not given here) [EGFR-727 MOE]	0.397
ATGTGATGGCCTCCCATCTC (antisense; 2'-MOE modified, pattern not given here) [HPRT-333 MOE]	0.643
CAACACTTCGTGGGGTCCTT (antisense; 2'-MOE modified, pattern not given here) [HPRT-665 MOE]	0.487
CAAGGCCCTTCGCACTTCTT (antisense; 2'-MOE modified, pattern not given here) [EGFR-1225 MOE]	0.587
CAATGTGATGGCCTCCCATC (antisense; 2'-MOE modified, pattern not given here) [HPRT-335 MOE]	0.451
CACCCACTTGGCAGACCATC (antisense; 2'-MOE modified, pattern not given here) [CTNN2B-1576 MOE]	0.600
CAGATAGCACCTTCAGCACT (antisense; 2'-MOE modified, pattern not given here) [CTNN2B-1294 MOE]	0.497
CCAACACTTCGTGGGGTCCT (antisense; 2'-MOE modified, pattern not given here) [HPRT-666 MOE]	0.856
CGTGTCTGGAAGCTTCCTTT (antisense; 2'-MOE modified, pattern not given here) [CTNN2B-808 MOE]	0.541

Sequence	TLR7 100 nM
CTCTTGAAGCATCGTATCAC (antisense; 2'-MOE modified, pattern not given here) [CTNN2B-3648 MOE]	0.609
CTGTGATCTTGACATGCTGC (antisense; 2'-MOE modified, pattern not given here) [EGFR-2790 MOE]	0.449
CTTACTTTCCGAGGTGTCCA (antisense; 2'-MOE modified, pattern not given here) [CAMSAP1-1739 MOE]	0.588
GAACCACGTCTGCTCTAACA (antisense; 2'-MOE modified, pattern not given here) [CAMSAP1-1635 MOE]	0.597
GAGGTCTTGGCTTCGTGGAG (antisense; 2'-MOE modified, pattern not given here) [MB21D1-523 MOE]	0.419
GAGTCTCTGGAGCTTCCTCT (antisense; 2'-MOE modified, pattern not given here) [CAMSAP1-2456 MOE]	0.469
GATGCTCCTCGGTCTCCCTT (antisense; 2'-MOE modified, pattern not given here) [CAMSAP1-1850 MOE]	0.453
GATGGCCTCCCATCTCCTTC (antisense; 2'-MOE modified, pattern not given here) [HPRT-329 MOE]	0.678
GCCGCTTTTCTGTCTGGTTC (antisense; 2'-MOE modified, pattern not given here) [CTNN2B-311 MOE]	0.567
GCGACTATACGCGCAATATG (antisense; 2'-MOE modified, pattern not given here) [NC5 2′MOE]	0.948
GCGGAGGTCTTGGCTTCGTG (antisense; 2'-MOE modified, pattern not given here) [MB21D1-526 MOE]	0.453
GCGTATTATAGCCGATTAAC (antisense; 2'-MOE modified, pattern not given here) [NC1 2′MOE]	0.565
GCGTGTCTGGAAGCTTCCTT (antisense; 2'-MOE modified, pattern not given here) [CTNN2B-809 MOE]	0.415
GCTTCAGGCGCTGCCTTGCC (antisense; 2'-MOE modified, pattern not given here) [CAMSAP1-2709 MOE]	0.527
GGAGATTTCAGAGCAGCTTC (antisense; 2'-MOE modified, pattern not given here) [EGFR-4885 MOE]	0.330
GGAGCTTCGAGGCCCCAGGC (MOE modified, pattern not given here) [MB21D1-616 MOE]	0.392
GGAGGTCTTGGCTTCGTGGA (antisense; 2'-MOE modified, pattern not given here) [MB21D1-524 MOE]	0.434
GGCATCCACCACGTCGTCCA (antisense; 2'-MOE modified, pattern not given here) [EGFR-3266 MOE]	0.216
GGGAAAGGTTATGCAAGGTC (antisense; 2'-MOE modified, pattern not given here) [CTNN2B-916 MOE]	0.599

Same assay, conditions: MOE-modified ASO at 500 nM; averaged NF-κB-Luciferase relative to R848 condition

Sequence	TLR7 500 nM
AACACTTCGTGGGGTCCTTT (antisense; 2'-MOE modified, pattern not given here) [HPRT-664 MOE]	0.226
AATCCGCCCAAAGGGAACTG (antisense; 2'-MOE modified, pattern not given here) [HPRT-1027 MOE]	0.521
ACAACCCCTTTCACCATCCC (antisense; 2'-MOE modified, pattern not given here) [MB21D1-689 MOE]	0.533
ACAGTGTTGAGATACTCGGG (antisense; 2'-MOE modified, pattern not given here) [EGFR-3652 MOE]	0.129
ACCCACTTGGCAGACCATCA (antisense; 2'-MOE modified, pattern not given here) [CTNN2B-1575 MOE]	0.336
ACTGACTGTCTTGAGGGTTC (antisense; 2'-MOE modified, pattern not given here) [MB21D1-1483 MOE]	0.299
AGATCTGGCAGCCCATCAAC (antisense; 2'-MOE modified, pattern not given here) [CTNN2B-2516 MOE]	0.201
AGGTCTTGGCTTCGTGGAGC (antisense; 2'-MOE modified, pattern not given here) [MB21D1-522 MOE]	0.150
ATCCAACACTTCGTGGGGTC (antisense; 2'-MOE modified, pattern not given here) [HPRT-668 MOE]	0.611
ATGTCCCCTGTTGACTGGTC (antisense; 2'-MOE modified, pattern not given here) [HPRT-489 MOE]	0.224
ATGTCCCGCCACTGGATGCT (antisense; 2'-MOE modified, pattern not given here) [EGFR-727 MOE]	0.171
ATGTGATGGCCTCCCATCTC (antisense; 2'-MOE modified, pattern not given here) [HPRT-333 MOE]	0.345
CAACACTTCGTGGGGTCCTT (antisense; 2'-MOE modified, pattern not given here) [HPRT-665 MOE]	0.285
CAAGGCCCTTCGCACTTCTT (antisense; 2'-MOE modified, pattern not given here) [EGFR-1225 MOE]	0.336
CAATGTGATGGCCTCCCATC (antisense; 2'-MOE modified, pattern not given here) [HPRT-335 MOE]	0.279
CACCCACTTGGCAGACCATC (antisense; 2'-MOE modified, pattern not given here) [CTNN2B-1576 MOE]	0.227
CAGATAGCACCTTCAGCACT (antisense; 2'-MOE modified, pattern not given here) [CTNN2B-1294 MOE]	0.254
CCAACACTTCGTGGGGTCCT (antisense; 2'-MOE modified, pattern not given here) [HPRT-666 MOE]	0.334
CGTGTCTGGAAGCTTCCTTT (antisense; 2'-MOE modified, pattern not given here) [CTNN2B-808 MOE]	0.350

Sequence	TLR7 500 nM
CTCTTGAAGCATCGTATCAC (antisense; 2'-MOE modified, pattern not given here) [CTNN2B-3648 MOE]	0.341
CTGTGATCTTGACATGCTGC (antisense; 2'-MOE modified, pattern not given here) [EGFR-2790 MOE]	0.206
CTTACTTTCCGAGGTGTCCA (antisense; 2'-MOE modified, pattern not given here) [CAMSAP1-1739 MOE]	0.336
GAACCACGTCTGCTCTAACA (antisense; 2'-MOE modified, pattern not given here) [CAMSAP1-1635 MOE]	0.291
GAGGTCTTGGCTTCGTGGAG (antisense; 2'-MOE modified, pattern not given here) [MB21D1-523 MOE]	0.095
GAGTCTCTGGAGCTTCCTCT (antisense; 2'-MOE modified, pattern not given here) [CAMSAP1-2456 MOE]	0.170
GATGCTCCTCGGTCTCCCTT (antisense; 2'-MOE modified, pattern not given here) [CAMSAP1-1850 MOE]	0.199
GATGGCCTCCCATCTCCTTC (antisense; 2'-MOE modified, pattern not given here) [HPRT-329 MOE]	0.336
GCCGCTTTTCTGTCTGGTTC (antisense; 2'-MOE modified, pattern not given here) [CTNN2B-311 MOE]	0.268
GCGACTATACGCGCAATATG (antisense; 2'-MOE modified, pattern not given here) [NC5 2′MOE]	0.294
GCGGAGGTCTTGGCTTCGTG (antisense; 2'-MOE modified, pattern not given here) [MB21D1-526 MOE]	0.154
GCGTATTATAGCCGATTAAC (antisense; 2'-MOE modified, pattern not given here) [NC1 2′MOE]	0.265
GCGTGTCTGGAAGCTTCCTT (antisense; 2'-MOE modified, pattern not given here) [CTNN2B-809 MOE]	0.134
GCTTCAGGCGCTGCCTTGCC (antisense; 2'-MOE modified, pattern not given here) [CAMSAP1-2709 MOE]	0.196
GGAGATTTCAGAGCAGCTTC (antisense; 2'-MOE modified, pattern not given here) [EGFR-4885 MOE]	0.088
GGAGCTTCGAGGCCCCAGGC (MOE modified, pattern not given here) [MB21D1-616 MOE]	0.179
GGAGGTCTTGGCTTCGTGGA (antisense; 2'-MOE modified, pattern not given here) [MB21D1-524 MOE]	0.091
GGCATCCACCACGTCGTCCA (antisense; 2'-MOE modified, pattern not given here) [EGFR-3266 MOE]	0.097
GGGAAAGGTTATGCAAGGTC (antisense; 2'-MOE modified, pattern not given here) [CTNN2B-916 MOE]	0.163
